In test [1] the test system is Staphylococcus aureus 489. The test is described as follows: broth micro-dilution MIC. The class given is cell-based. As to the method: (§1) The MIC's were determined using a standard broth micro-dilution assay.
Test [2] concerns Staphylococcus aureus SA1199. The test is described as follows: broth micro-dilution MIC. It counts as cell-based. As to the method:
as §1

For test [3], the system named is Staphylococcus aureus 447. Briefly: broth micro-dilution MIC. It counts as cell-based. As to the method: as §1
(Broth dilution looks for growth in wells or tubes with falling amounts of substance.)

For test [4], the system named is Staphylococcus aureus 491. Briefly: broth micro-dilution MIC. The class given is cell-based. As to the method: as §1
Test [5] concerns Staphylococcus aureus X400. Briefly: broth micro-dilution MIC. It counts as cell-based. As to the method: as §1
In test [6] the test system is Staphylococcus aureus 446. The test is described as follows: broth micro-dilution MIC. The class given is cell-based. As to the method:
as §1

The subject of test [7] is Staphylococcus aureus SA1199A. Briefly: broth micro-dilution MIC. The class given is cell-based. As to the method: as §1
For test [8], the system named is Staphylococcus aureus X778. Briefly: broth micro-dilution MIC. The class given is cell-based. As to the method:
as §1

In test [9] the test system is Entercoccus faecium 180-1. Briefly: broth micro-dilution MIC. The class given is cell-based. As to the method:
as §1

Test [10] concerns Entercoccus faecium 276. The test is described as follows: broth micro-dilution MIC. The class given is cell-based. As to the method:
as §1

Test [11] concerns Streptococcus pyogenes C203. Briefly: broth micro-dilution MIC. It counts as cell-based. As to the method: as §1
In test [12] the test system is Staphylococcus aureus SA1199B. The class given is cell-based. As to the method:
as §1

The test system of test [13] is Staphylococcus aureus S13E. It counts as cell-based. As to the method:
as §1

Test [14] deals with vancomycin-resistant enterococci. Briefly: broth micro-dilution, mean geometric MIC. The class given is cell-based, Enterococcus faecium and Enterococcus faecalis. The settings on record: enterococci, 24-hour incubation.
The test system of test [15] is Staphylococcus epidermidis 270. Briefly: broth micro-dilution MIC. It counts as cell-based. As to the method: (§2) The formula I compounds have in vitro and in vivo activity against Gram-positive pathogenic bacteria. The MIC's were determined using a standard broth micro-dilution assay.
The subject of test [16] is Streptococcus pneumoniae P1. Briefly: broth micro-dilution MIC. It counts as cell-based. As to the method:
as §2

The subject of test [17] is Haemophilus influenzae RD. The test is described as follows: broth micro-dilution MIC. The class given is cell-based. The note with it: Haemophilus influenzae RD. As to the method:
as §2

Test [18] relates to Escherichia coli EC14. Briefly: broth micro-dilution MIC. The class given is cell-based. As to the method:
as §2

Test [19] concerns Entercoccus faecium 2041. The test is described as follows: broth micro-dilution MIC. The class given is cell-based. The settings on record: Entercoccus faecium 2041. As to the method:
as §2

In test [20] the test system is Staphylococcus haemolyticus 105. The test is described as follows: broth micro-dilution MIC. The class given is cell-based. As to the method: as §2
Test [21] deals with Staphylococcus haemolyticus 415. Briefly: broth micro-dilution MIC. The class given is cell-based. As to the method:
as §2

Test [22] deals with Enterococcus gallinarum 245. Briefly: broth micro-dilution MIC. The class given is cell-based. The settings on record: Enterococcus gallinarum 245. As to the method: as §2
Test [23] relates to Entercoccus faecium 180. The test is described as follows: broth micro-dilution MIC. The class given is cell-based. The note with it: Entercoccus faecium 180. As to the method:
as §2

For test [24], the system named is vancomycin-susceptible enterococci. The test is described as follows: broth micro-dilution, mean geometric MIC. It counts as cell-based, Enterococcus faecium and Enterococcus faecalis. The note with it: enterococci, 24-hour incubation.

Converted amounts (≈) assume the structure as drawn.

In the case of `CNC(CC(C)C)C(=O)NC1C(=O)NC(CC(N)=O)C(=O)NC2C(=O)NC3C(=O)NC(C(=O)NC(C(=O)O)c4cc(O)cc(O)c4-c4cc3ccc4O)C(OC3CC(C)(NCc4ccc(-c5ccc([N+](=O)[O-])cc5)cc4)C(O)C(C)O3)c3ccc(c(Cl)c3)Oc3cc2cc(c3OC2OC(CO)C(O)C(O)C2OC2CC(C)(NCc3ccc(-c4ccc([N+](=O)[O-])cc4)cc3)C(O)C(C)O2)Oc2ccc(cc2Cl)C1O` (stereo not drawn) [Compound 263], the MIC was found to be 0.25 µg/mL (≈ 0.124 µM) in test [1]; 1 µg/mL (≈ 0.496 µM) in test [2]; 2 µg/mL (≈ 0.993 µM) in [3]; 1 µg/mL (≈ 0.496 µM) in test [4]; 0.5 µg/mL (≈ 0.248 µM) in test [5]; 1 µg/mL (≈ 0.496 µM) in test [6]. The MIC was ≤ 0.06 µg/mL in test [7]; 0.5 µg/mL (≈ 0.248 µM) in [8]; ≤ 0.06 µg/mL in test [9]; 0.5 µg/mL (≈ 0.248 µM) in test [10]; ≤ 0.06 µg/mL in test [11]; 1 µg/mL (≈ 0.496 µM) in test [12]. In addition, the MIC in test [13] was 1 µg/mL (≈ 0.496 µM); in test [15] it was 4 µg/mL (≈ 1.99 µM); in [16] it was ≤ 0.06 µg/mL; in [17] it was > 64 µg/mL; in [18] it was 65 µg/mL (≈ 32.3 µM); in [19] it was ≤ 0.06 µg/mL. Also, the MIC is 16 µg/mL (≈ 7.94 µM) in test [20], 8 µg/mL (≈ 3.97 µM) in test [21], 8 µg/mL (≈ 3.97 µM) in test [22] and ≤ 0.06 µg/mL in [23]. In addition, the “mean geometric MIC, Vancomycin Resistant Strains” value in test [14] was 1.7 µg/mL. The “mean geometric MIC, Vancomycin Sensitive Strains” value in [24] is 0.29 µg/mL.
In the case of `CC(C)CC(C(=O)NC1C(=O)NC(CC(N)=O)C(=O)NC2C(=O)NC3C(=O)NC(C(=O)NC(C(=O)O)c4cc(O)cc(O)c4-c4cc3ccc4O)C(OC3CC(C)(N)C(O)C(C)O3)c3ccc(c(Cl)c3)Oc3cc2cc(c3OC2OC(CO)C(O)C(O)C2OC2CC(C)(NCc3ccc4c(c3)OCO4)C(O)C(C)O2)Oc2ccc(cc2Cl)C1O)N(C)Cc1ccc2c(c1)OCO2` (stereo not drawn) [Compound 265], the MIC turned out to be 0.5 µg/mL (≈ 0.269 µM) in [1]; 2 µg/mL (≈ 1.07 µM) in test [2]; 2 µg/mL (≈ 1.07 µM) in [3]; 2 µg/mL (≈ 1.07 µM) in test [4]; 0.5 µg/mL (≈ 0.269 µM) in test [5]; 2 µg/mL (≈ 1.07 µM) in test [6]. Besides, the MIC was ≤ 0.06 µg/mL in test [7]; 0.5 µg/mL (≈ 0.269 µM) in test [8]; ≤ 0.06 µg/mL in test [9]; 0.5 µg/mL (≈ 0.269 µM) in test [10]; ≤ 0.06 µg/mL in test [11]; 0.5 µg/mL (≈ 0.269 µM) in test [12]. Moreover, the MIC was 0.5 µg/mL (≈ 0.269 µM) in test [13]; 4 µg/mL (≈ 2.15 µM) in test [15]; ≤ 0.06 µg/mL in test [16]; > 64 µg/mL in test [17]; > 64 µg/mL in [18]; 0.25 µg/mL (≈ 0.134 µM) in test [19]. The MIC in test [20] stood at 8 µg/mL (≈ 4.3 µM); in test [21], 1 µg/mL (≈ 0.537 µM); in test [22], 1 µg/mL (≈ 0.537 µM); in test [23], 8 µg/mL (≈ 4.3 µM). Further, the “mean geometric MIC, Vancomycin Resistant Strains” value in [14] worked out at 54 µg/mL. Also, the “mean geometric MIC, Vancomycin Sensitive Strains” value in test [24] was 0.87 µg/mL.
On to `CC(C)CC(C(=O)NC1C(=O)NC(CC(N)=O)C(=O)NC2C(=O)NC3C(=O)NC(C(=O)NC(C(=O)O)c4cc(O)cc(O)c4-c4cc3ccc4O)C(OC3CC(C)(N)C(O)C(C)O3)c3ccc(c(Cl)c3)Oc3cc2cc(c3OC2OC(CO)C(O)C(O)C2OC2CC(C)(NCc3ccc(Oc4ccc([N+](=O)[O-])cc4)cc3)C(O)C(C)O2)Oc2ccc(cc2Cl)C1O)N(C)Cc1ccc(Oc2ccc([N+](=O)[O-])cc2)cc1` (stereo not drawn) [Compound 267], for which the MIC in test [1] was 0.25 µg/mL (≈ 0.122 µM); in test [2], 2 µg/mL (≈ 0.977 µM); in test [3], 0.5 µg/mL (≈ 0.244 µM); in test [4] it was 1 µg/mL (≈ 0.489 µM); in test [5], 0.5 µg/mL (≈ 0.244 µM); in test [6], 0.5 µg/mL (≈ 0.244 µM). Besides, the MIC in test [7] is ≤ 0.06 µg/mL; in test [8] it was 1 µg/mL (≈ 0.489 µM); in test [9], 0.125 µg/mL (≈ 0.0611 µM); in [10], 1 µg/mL (≈ 0.489 µM); in test [11] it was ≤ 0.06 µg/mL; in test [12], 1 µg/mL (≈ 0.489 µM). In addition, the MIC in [13] is 1 µg/mL (≈ 0.489 µM); in test [15], 4 µg/mL (≈ 1.95 µM); in test [16], ≤ 0.06 µg/mL; in [17], > 64 µg/mL; in test [18], > 64 µg/mL; in test [19], 0.25 µg/mL (≈ 0.122 µM). Further, the MIC in test [20] came out at 16 µg/mL (≈ 7.82 µM); in test [21] it was 4 µg/mL (≈ 1.95 µM); in test [22], 4 µg/mL (≈ 1.95 µM); in test [23], 0.25 µg/mL (≈ 0.122 µM). Further, the “mean geometric MIC, Vancomycin Resistant Strains” value in [14] turned out to be 2.8 µg/mL. Further, in [24], the “mean geometric MIC, Vancomycin Sensitive Strains” value was 0.22 µg/mL.
On to `COc1cc(CNC2(C)CC(OC3C(Oc4c5cc6cc4Oc4ccc(cc4Cl)C(OC4CC(C)(N)C(O)C(C)O4)C4NC(=O)C(NC(=O)C6NC(=O)C(CC(N)=O)NC(=O)C(NC(=O)C(CC(C)C)N(C)Cc6ccc(OCc7ccccc7)c(OC)c6)C(O)c6ccc(c(Cl)c6)O5)c5ccc(O)c(c5)-c5c(O)cc(O)cc5C(C(=O)O)NC4=O)OC(CO)C(O)C3O)OC(C)C2O)ccc1OCc1ccccc1` (stereo not drawn) [Compound 268], for which the MIC in test [1] is 1 µg/mL (≈ 0.489 µM); in test [2], 4 µg/mL (≈ 1.96 µM); in test [3], 4 µg/mL (≈ 1.96 µM); in [4], 1 µg/mL (≈ 0.489 µM); in test [5], 2 µg/mL (≈ 0.978 µM); in test [6], 2 µg/mL (≈ 0.978 µM). Moreover, the MIC in test [7] was 0.5 µg/mL (≈ 0.244 µM); in test [8], 2 µg/mL (≈ 0.978 µM); in [9], 0.25 µg/mL (≈ 0.122 µM); in test [10], 2 µg/mL (≈ 0.978 µM); in [11], ≤ 0.06 µg/mL; in test [12], 2 µg/mL (≈ 0.978 µM). Further, the MIC is 4 µg/mL (≈ 1.96 µM) in test [13]; 1 µg/mL (≈ 0.489 µM) in test [15]; ≤ 0.06 µg/mL in test [16]; > 64 µg/mL in [17]; > 64 µg/mL in test [18]; 1 µg/mL (≈ 0.489 µM) in [19]. Also, the MIC was determined as 8 µg/mL (≈ 3.91 µM) in test [20], 4 µg/mL (≈ 1.96 µM) in test [21], 4 µg/mL (≈ 1.96 µM) in [22] and 0.5 µg/mL (≈ 0.244 µM) in test [23]. For the same compound, in test [14], the “mean geometric MIC, Vancomycin Resistant Strains” value stood at 6.7 µg/mL. Also, the “mean geometric MIC, Vancomycin Sensitive Strains” value in test [24] was 0.87 µg/mL.

These data come from patent US5840684A, “Glycopeptide antibiotic derivatives” (Eli Lilly and Company, priority 1995, dated 1998).
